# Patent publication US6458585B1, “Cytokine-free culture of dendritic cells” (Nexell Therapeutics Inc., priority 1996, dated 2002)
# Tests used:
# [1] = system: Bulk PBMNC; test: S100+ cells in bulk PBMNC cultures with non-cytokine additives; format: cell-based, human; details: day 7; average
# Experimental: (§1) Immunocytochemical staining: PBS (phosphate buffered saline) was made by dissolving 5 PBS tablets into 1000 ml millipore water. Cytospin slides were soaked in PBS. Endogenous peroxidase activity was blocked by treating slides with hydrogen peroxide/PBS (2 ml 30% H2O2+30 ml PBS) for 10 min. Slides were rinsed with PBS one time. Non-specific binding sites were blocked by incubating with normal serum matching source of secondary antibody (i.e. if secondary antibody is biotinylated goat-anti-mouse, used normal goat serum) at room temp. for 15 min. in a humidified environment. Excess serum was shaken from slides and placed 100 ul of primary antibody on slide, making sure cells are covered with liquid and incubated in humidified environment, room temp, for one hour. Negative control slides were incubated with normal serum for this hour. Slides were rinsed 3 times with PBS. Slides were incubated with biotinylated antibody reactive against the primary antibody (i.e. if primary antibody is mouse-anti-human, use a biotinylated goat-anti-mouse antibody) for 1 hour in humidity. Slides were rinsed 3 times with PBS. Slides were incubated with streptavidin-peroxidase, 2 drops/slide, for 30 min. in humidity. Slides were rinsed 3 times with PBS.
# (§2) Chromagen solution was made with 5 ml millipore water+2 drops of chromagen buffer+1 drop of concentrated chromagen+1 drop of substrate, and 4-5 drops were added to each slide. […] Slides were counterstained with hematoxylin for about 5 min, or until cell nuclei were stained purple. Cells were rinsed with tap water and allowed to air dry. Slides were covered with crystal mount and oven dried at 80 degrees for 15 min. Slides were allowed to cool, then coversliped with mounting medium.
# Culture of Bulk PBMNC: PBMNC cells were cultured in X-VIVO 15™ supplemented with 2 mM L- glutamine. Cultures were initiated at 5×^05 cells/ml in PL2417 gas-permeable containers (20 ml). GM-CSF and IL-4 were added to the cultures at final concentrations of 50 ng/ml and 1000 U/ml or non-cytokine additives such as Vitamin D3 at 2.5 uM, Vitamin E at 0.1%, Linoleic Acid at 5 ug/ml, or Ca++ Ionophore at 10 mM. Addition and subtraction of cells, media, and growth factors to and from PL2417 gas-permeable containers was accomplished by spiking a Sampling Site Coupler into the sample port of the container followed by use of syringes and needles. Cells were cultured in a 5% CO2, ambient O2, 37° C. humidified incubator for 7 days.
# (§3) Cytospin slide preparation, Wright-Geimsa and immunohistochemical staining of the cultured cells were conducted as described in Example 1 and 2 above. Mixed lymphocyte reactions (MLR's) were setup using T cells (responders) and dendritic cell enriched cultures (stimulators) from bulk PBMNC cultures, as described above in Example 1.
# The S100 protein is a nerve cell protein that has been associated with dendritic cells. In Table 47, at day 7 of culture, the highest percent of S100+ cells was present in the GM-CSF/IL-4 culture (13%).
# [2] = system: adherent PBMNC; test: S100 immunohistochemistry of plastic adherent cells cultured with non-cytokine additives; format: cell-based, human; details: for percentage of S100+ cells: without GM-CSF added to additives
# Experimental: as §1, with “Endogenous peroxidase activity was blocked by treating slides with hydrogen peroxide/PBS (2 ml 30% H2O2+30 ml PBS) for 10 min.” left out
# as §2
# Enrichment and Culture of Adherent Cells Using Polystyrene Tissue Culture Plates: PBMNC were resuspended in culture media (X-VIVO 15™+10% autologous serum) at 2×10^6 cells/ml. Cells were placed into 48 well polystyrene tissue culture plates […] and incubated for 2 hours in a 5% CO2, ambient O2, 37° C. humidified incubator. Non-adherent cells were removed from the plates then wells were rinsed with X-VIVO 15™ containing no serum. Cells remaining in the wells were adherent cells. These cells were cultured by adding 2 ml of X-VIVO 15™ to each well plus GM-CSF and IL-4 at final concentrations of 50 ng/ml and 1000 U/ml or the following: cAMP at 0.5 mM, dibutyryl cAMP at 0.1 mM, NaF at 0.25 mM, theophylline at 0.5 mM, PGE at 0.1 mM, Vitamin D3 at 2.5 uM, Vitamin E at 0.1%, Retinoic Acid at 10^−6 M, PMA at 1 pM, Linoleic Acid at 5 ug/ml, or Ca^++ Ionophore at 10 mM. Furthermore, cells were also cultured with the above non-cytokine additives plus GM-CSF at 50 ng/ml. Cells were cultured in a 5% CO2, ambient O2, 37° C. humidified incubator for 7 days.
# as §3
# Results: In the set of experiments using plastic adherent cells grown in polystyrene tissue culture plates, a Day 0 analysis of the cells was not performed. However, these cultures were analyzed for the presence of DC on days 4 and 7. Analysis perfomed were cell counts, viability via propidium iodide, morphology under Wright-Geimsa staining, and immunohistochemical staining using an anti-S100 antibody.
smiles,measurement,setting,value
CCCCC/C=C\C/C=C\CCCCCCCC(=O)O [Linoleic Acid],percent of S100+ cells,[1],equivalent average percentages
same,% S100+,"[2]; Day 4, with GM-CSF present",12.00%
same,% S100+,"[2]; Day 4, without GM-CSF",20.00%
same,% S100+,"[2]; Day 7, with GM-CSF present",26.00%
same,% S100+,"[2]; Day 7, without GM-CSF",25.00%
same,percentage of S100+ cells,[2]; day 4,20%
same,percentage of S100+ cells,[2]; day 7,next highest percentages
